The source of these data is patent US20220288057A1, “CONJOINT THERAPY FOR TREATING SEIZURE DISORDERS” (XENON PHARMACEUTICALS INC., priority 2021, published 2022).

The IC50 is the concentration needed to halve the response being measured. The ED50 is the midpoint of the dose-response relation.

Data set [1] relates to tonic hindlimb seizure following corneal stimulation in CF-1 mice. The data set can be described thus: Mouse maximal electroshock (MES) assay, 60 Hz 50 mA corneal stimulation. It counts as in vivo. The procedure: The interaction of Compound A with other ASMs was evaluated after oral dosing in the mouse maximal electroshock (MES) assay to determine whether some combinations were favorable or unfavorable. Efficacy was quantified by calculating the fraction of animals with a tonic hindlimb seizure following corneal stimulation. Compound Preparation: Compound A was initially solubilized in DMSO. This solution was then added into a 0.5% methyl cellulose solution to create a more even and less aggregated compound suspension. Serial dilutions were prepared from the tube with the highest concentration of Compound A and the compound suspensions were further vortexed prior to animal dosing. The final concentration of DMSO was 5%, an amount with no apparent toxicity or neuroprotection in the MES assay. […] Animals: Adult male CF-1 albino mice (25-35 g) purchased from Harlan-Envigo were used. The mice were housed four per cage and had access to filtered water and chow ad libidum, throughout the experiment. MES Assay: Compounds were administered orally by gavage before testing unless indicated otherwise. During MES testing, a 60-Hz alternating current (50 mA) was delivered for 0.2 seconds through corneal electrodes to the mice. A drop of 0.5% Alcaine solution was placed on the eye prior to current delivery. The electrodes were subsequently placed gently onto the eyes of the animal and the electrical shock was initiated by triggering through a foot-pedal activator. The animals were restrained by hand and gently released as the shock was delivered and the seizure commenced. Animals were monitored for hind limb tonic extension as the end point for this test. Statistical analysis: All statistics were calculated using Prism version 7 software (Graphpad Software). The method used for each experiment is indicated in the results section. Concentration-response curves were calculated as best fits to the equation […] where X was the log of plasma concentration. Unless indicated otherwise, bottom was constrained to be 0. Top was constrained to be the value determined experimentally by vehicle control measurements. Compound A Dose Response: […]
In general terms: Protection in the maximal electroshock model is a classic sign of anticonvulsant action.

In data set [2] the test system is 6 Hz psychomotor seizures in CF-1 mice. The data set can be described thus: Mouse 6 Hz psychomotor seizure assay (34 milliampere, 3 s). To be noted: for Fraction Seizing: Levetiracetam 300 mg/kg IP 1 h alone. It counts as in vivo. The procedure:
It was evaluated whether the combination of both compounds is favorable or unfavorable for efficacy by dosing Compound A and Levetiracetam alone and in combination, each at a dose that produces sub-maximal efficacy on its own. […] Plasma and brain samples were analyzed to gain an understanding of how the combination of Compound A and Levetiracetam may affect pharmacokinetics and pharmacodynamics. […] 6 Hz Psychomotor Seizure Assay: […] The animal was then securely restrained and a pair of electrodes was applied to the eyes (Electro Convulsive Therapy Unit 57800, Ugo Basile). […] Data Processing and Analysis: Statistical data analysis was performed using GraphPad Prism (version 8.2.1). Dose-response data was analyzed using a Kruskal-Wallis test, followed by Dunn's multiple comparisons. […] Dose- and concentration-response curves were generated using the Hill Langmuir equation: […]

The nature of data set [3]: Plasma and brain concentrations in 6 Hz studies (LC-MS/MS). It counts as in vivo, mouse. To be noted: intraperitoneal. As for the experimental part: Sample Collection and Preparation: Mice were anesthetized by isoflurane inhalation (TECH-018) until they reached a surgical plane of anesthesia. Then a syringe (1 mL syringe with a 22 gauge needle) was inserted under the sternum into the heart (TECH-031). Approximately 0.5 mL of blood was collected, deposited into a K2EDTA tube, and stored on ice. Animals were then euthanized by cervical dislocation (TECH-018). Brains were removed, placed into a pre-weighed vial, and snap frozen on dry ice. At the end of the sample collection, blood was centrifuged at 4000 rpm for 10 minutes at 4° C., and the plasma pipetted into a labeled tube. All samples were stored in a −80° C. freezer until bioanalysis (8 days after sample collection for Studies 3A and 3B; 20 days after sample collection for Study 3C).
Plasma and Tissue Sample Analysis: Bead mill polypropylene tubes containing weighed brain tissues were thawed at room temperature and 3 mL of homogenization solvent (water:acetonitrile (1:1, v:v)) was added. The tubes were placed in the Bead Mill Homogenizer (Bead Ruptor Elite Model, Omni International) and shaken at a velocity of 3.70 m/s for a single cycle lasting 30 seconds. The homogenized tube was centrifuged at 4000 rpm for 20 minutes, the supernatant was transferred to a 1.5 mL Eppendorf tube, and stored frozen at −80° C. until analysis. All samples including plasma and brain homogenate extracts (including calibration and quality control (QC) samples prepared in K2EDTA rat plasma), were extracted by protein precipitation. […] The samples in the 1.5 mL tubes were vortex mixed and then centrifuged for 20 minutes at 13,000 rpm. Fifty microliters of the supernatant was mixed with 150 μL of water/acetonitrile (1:1) in a 96 well plate which was centrifuged post mixing for 20 minutes at 4000 rpm, and was then ready for analysis by liquid chromatography tandem mass spectrometry (LC-MS/MS).
Samples were analyzed by a research-grade LC-MS/MS method as follows: […]

In a further data set the test system is MES assay. To be noted: Barton et al. 2001; cited from earlier work.

Like-named read-outs stand apart in the source and are kept apart here.

As for `CCCC(CCC)C(=O)O` [Valproic Acid, reference compound], the IC50 in data set [1] (Mus musculus, ip, read-out: IC50 for Valproic Acid (plasma level, inhibition of tonic seizures)) was 1440 µM. The “number of mice without tonic seizures/total” value is 1/7 in data set [1] (Vehicle PO + Valproic Acid 56 mg/kg IP 0.5 h); 5/15 in data set [1] (Vehicle PO + Valproic Acid 100 mg/kg IP 0.5 h); 0/8 in data set [1] (Vehicle+Valproic Acid at 56 mg/kg as printed, comparator of the 30 mg/kg combination). The “decrease of IC50 for Valproic Acid” value in data set [1] (combined with 1 mg/kg Compound A vs alone) was found to be 2.37 fold.
In the case of `CC[C@@H](C(N)=O)N1CCCC1=O` [Levetiracetam, reference compound], the “average efficacy in previous experiments” value in data set [2] (Levetiracetam 300 mg/kg IP 1 h, 34 milliampere 6 Hz) worked out at 35%. Besides, the “Fraction Seizing” value was 14/16 in data set [2] (Studies 3B+3C combined), 8/8 in data set [2] (Study 3B) and 6/8 in data set [2] (Study 3C). Further, the “animals protected from seizing” value in data set [2] (Study 3C, Levetiracetam 300 mg/kg IP alone) is given as 2/8. For the same molecule, the concentration at 1 h was determined as 861 ± 120 µM in data set [3] (CF-1, mouse, brain, 300 mg/kg, Study 3B, Levetiracetam 300 mg/kg IP 1 h alone, read-out: Brain); 1100 ± 265 µM in data set [3] (CF-1, mouse, brain, Study 3C, analyte Levetiracetam, 300 mg/kg IP + Compound A 4 mg/kg PO, read-out: Brain); 1500 ± 320 µM in data set [3] (CF-1, mouse, plasma, 300 mg/kg, Study 3B, Levetiracetam 300 mg/kg IP 1 h alone, read-out: Plasma); 996 µM in data set [3] (mouse, brain, 300 mg/kg, Studies 3B+3C combined, Levetiracetam 300 mg/kg IP 1 h alone, read-out: Brain); 861 ± 120 µM in data set [3] (mouse, brain, 300 mg/kg, Study 3B, Levetiracetam 300 mg/kg IP 1 h alone, read-out: Brain); 1050 µM in data set [3] (mouse, brain, Studies 3B+3C combined, analyte Levetiracetam, 300 mg/kg IP + Compound A 4 mg/kg PO, read-out: Brain). Besides, the concentration at 1 h in data set [3] (mouse, brain, Study 3B, analyte Levetiracetam, 300 mg/kg IP + Compound A 4 mg/kg PO, read-out: Brain) amounted to 1010 µM; in data set [3] (mouse, brain, Study 3C, analyte Levetiracetam, 300 mg/kg IP + Compound A 4 mg/kg PO, read-out: Brain), 1100 µM; in data set [3] (mouse, plasma, 300 mg/kg, Studies 3B+3C combined, Levetiracetam 300 mg/kg IP 1 h alone, read-out: Plasma), 1640 µM; in data set [3] (mouse, plasma, 300 mg/kg, Study 3B, Levetiracetam 300 mg/kg IP 1 h alone, read-out: Plasma) it was 1500 ± 320 µM; in data set [3] (mouse, plasma, Studies 3B+3C combined, analyte Levetiracetam, 300 mg/kg IP + Compound A 4 mg/kg PO, read-out: Plasma), 1730 µM; in data set [3] (mouse, plasma, Study 3B, analyte Levetiracetam, 300 mg/kg IP + Compound A 4 mg/kg PO, read-out: Plasma), 1350 µM. Also, in data set [3] (mouse, plasma, Study 3C, analyte Levetiracetam, 300 mg/kg IP + Compound A 4 mg/kg PO, read-out: Plasma), the concentration at 1 h worked out at 2160 µM. For the same molecule, the ED50 in the data set with MES assay was over 500 mg/kg. Also, the “fraction of mice without tonic seizures” value in data set [1] (Levetiracetam 120 mg/kg IP 2 h) is on record as 0/6; in data set [1] (Levetiracetam 150 mg/kg IP 2 h), 2/8.
`O=C1NC(=O)C(c2ccccc2)(c2ccccc2)N1` [Phenytoin, reference compound]: in data set [1] (Phenytoin 2 mg/kg), the “maximum % seizures of fitted curve, reflecting efficacy of Phenytoin alone” value was found to be 75%. Besides, the “fraction of animals without tonic seizures” value in data set [1] (Phenytoin 2 mg/kg IP 2 h alone) is recorded as 6/24.
